Three molecules from patent US6818445B2 (Synaptic Pharmaceutical Corporation, priority 1994, dated 2004) can be followed below.

SMILES strings stand for the structures.

One test has as its target T1, human Y1 receptor (Homo sapiens, UniProt P25929).
T1 sequence (P25929 1-384): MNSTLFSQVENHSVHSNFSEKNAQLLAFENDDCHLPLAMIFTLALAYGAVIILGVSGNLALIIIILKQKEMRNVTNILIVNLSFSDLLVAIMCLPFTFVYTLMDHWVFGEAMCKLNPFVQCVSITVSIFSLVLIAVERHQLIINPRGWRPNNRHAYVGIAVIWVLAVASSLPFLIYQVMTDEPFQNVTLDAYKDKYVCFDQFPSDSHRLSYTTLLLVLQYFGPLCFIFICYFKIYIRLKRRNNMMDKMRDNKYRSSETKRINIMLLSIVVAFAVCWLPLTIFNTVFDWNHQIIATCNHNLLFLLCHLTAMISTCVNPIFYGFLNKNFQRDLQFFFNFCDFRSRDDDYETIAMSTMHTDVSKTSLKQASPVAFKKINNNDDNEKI
As to conditions: read-out: Binding Affinity (Ki (nM) vs. ^125I-PYY) Human Receptor Y1; Table 14.

The next test concerns the target T2, human Y2 receptor (Homo sapiens, UniProt P49146).
T2 sequence (P49146 1-381): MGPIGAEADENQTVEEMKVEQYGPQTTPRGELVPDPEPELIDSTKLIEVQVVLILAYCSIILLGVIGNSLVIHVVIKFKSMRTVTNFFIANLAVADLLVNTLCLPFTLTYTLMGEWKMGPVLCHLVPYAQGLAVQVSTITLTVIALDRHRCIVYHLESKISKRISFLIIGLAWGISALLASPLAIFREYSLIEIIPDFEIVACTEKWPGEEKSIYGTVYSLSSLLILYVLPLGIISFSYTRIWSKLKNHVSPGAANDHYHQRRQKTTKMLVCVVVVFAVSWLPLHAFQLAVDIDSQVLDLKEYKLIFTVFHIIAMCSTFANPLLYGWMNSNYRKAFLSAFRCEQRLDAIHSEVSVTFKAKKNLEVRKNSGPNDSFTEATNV
Type of test: binding. The note with it: read-out: Binding Affinity (Ki (nM) vs. ^125I-PYY) Human Receptor Y2; Table 14.

Test [1] has as its system food intake of 24 h food-deprived rats. The test is described as follows: Food intake in food-deprived rats. Type of test: in vivo, rat. As to conditions: 30 mg/kg i.p. after 24 h food deprivation, percentage of intake compared to control rats.
Procedure: At the end of the equilibration period, food is removed from the animals for 24 hours starting at 8:00 a.m. At the end of the fasting period compound or vehicle may be administered to the animals orally or by injection intraperitoneally or intravenously. After 10-60 min. food is returned to the animals and their food intake is monitored at various time periods during the following 24 hour period. The food intake of animals treated with test compound may be calculated as a percentage of the food intake of control animals (i.e., animals treated with vehicle). Alternatively, food intake for each group of animals subjected to a particular experimental condition may be expressed as the mean±S.E.M.
Therefore, the Y5 antagonists of Table 14 were administered by intraperitoneal injection at a dose of 30 mg/kg to conscious rats following a 24 h food deprivation. […] Measurements were performed two hours after administration of the test compound.
For a further test, the target named is human 5-HT7 receptor (Homo sapiens, UniProt P34969). The test is described as follows: Binding to human 5-HT7 receptor. The note with it: cloned human receptor.
A further test addresses T3, human α1d receptor (Homo sapiens, UniProt P25100).
T3 sequence (P25100 1-572): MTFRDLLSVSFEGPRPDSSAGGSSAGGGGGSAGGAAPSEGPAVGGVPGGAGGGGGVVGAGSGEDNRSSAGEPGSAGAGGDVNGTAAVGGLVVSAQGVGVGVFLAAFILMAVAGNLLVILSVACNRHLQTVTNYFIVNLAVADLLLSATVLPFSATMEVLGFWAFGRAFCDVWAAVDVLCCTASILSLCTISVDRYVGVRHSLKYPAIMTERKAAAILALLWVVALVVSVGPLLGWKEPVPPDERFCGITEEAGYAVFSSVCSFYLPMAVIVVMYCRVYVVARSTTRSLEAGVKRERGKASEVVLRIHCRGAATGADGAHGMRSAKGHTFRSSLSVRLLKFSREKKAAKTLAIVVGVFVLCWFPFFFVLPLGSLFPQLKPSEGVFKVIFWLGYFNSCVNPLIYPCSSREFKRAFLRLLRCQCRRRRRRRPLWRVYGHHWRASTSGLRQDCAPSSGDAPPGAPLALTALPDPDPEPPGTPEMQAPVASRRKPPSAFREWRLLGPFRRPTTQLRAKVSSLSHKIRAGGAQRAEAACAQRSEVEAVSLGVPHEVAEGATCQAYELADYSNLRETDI
The test is described as follows: Binding to cloned human α1d adrenergic receptor.

The target in a further test is T4, human α1b receptor (Homo sapiens, UniProt P35368).
T4 sequence (P35368 1-520): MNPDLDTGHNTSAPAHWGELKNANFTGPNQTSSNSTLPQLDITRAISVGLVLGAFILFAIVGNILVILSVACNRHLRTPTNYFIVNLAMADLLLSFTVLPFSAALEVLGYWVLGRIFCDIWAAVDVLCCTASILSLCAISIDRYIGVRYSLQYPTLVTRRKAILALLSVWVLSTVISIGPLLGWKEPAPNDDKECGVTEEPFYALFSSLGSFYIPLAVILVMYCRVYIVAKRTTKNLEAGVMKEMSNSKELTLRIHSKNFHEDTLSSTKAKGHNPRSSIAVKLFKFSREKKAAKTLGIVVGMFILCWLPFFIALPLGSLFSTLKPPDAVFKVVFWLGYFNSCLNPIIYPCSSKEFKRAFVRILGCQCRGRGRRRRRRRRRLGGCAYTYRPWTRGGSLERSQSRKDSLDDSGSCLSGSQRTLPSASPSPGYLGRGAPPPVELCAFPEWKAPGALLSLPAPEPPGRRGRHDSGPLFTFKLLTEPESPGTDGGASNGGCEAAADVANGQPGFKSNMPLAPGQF
The test is described as follows: Binding to cloned human α1b adrenergic receptor.

Another test concerns the target human 5HT1Dα receptor (Homo sapiens, UniProt P28221). The test is described as follows: Binding to human 5HT1Dα receptor, [3H]serotonin. As to conditions: cloned human receptor.
The next test has as its target T5, human α2A receptor (Homo sapiens, UniProt P08913).
T5 sequence (P08913 1-465): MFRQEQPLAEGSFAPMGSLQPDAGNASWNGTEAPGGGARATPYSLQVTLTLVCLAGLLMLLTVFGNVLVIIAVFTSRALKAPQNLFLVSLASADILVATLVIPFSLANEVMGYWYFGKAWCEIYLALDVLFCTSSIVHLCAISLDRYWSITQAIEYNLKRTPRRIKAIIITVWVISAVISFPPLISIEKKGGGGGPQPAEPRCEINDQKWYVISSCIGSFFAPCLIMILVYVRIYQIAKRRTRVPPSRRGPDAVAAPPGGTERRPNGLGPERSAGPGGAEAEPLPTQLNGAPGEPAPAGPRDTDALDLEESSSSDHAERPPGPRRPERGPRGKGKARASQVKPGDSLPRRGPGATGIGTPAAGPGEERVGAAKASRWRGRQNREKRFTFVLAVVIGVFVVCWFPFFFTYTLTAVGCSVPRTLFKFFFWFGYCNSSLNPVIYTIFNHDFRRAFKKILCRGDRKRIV
The test is described as follows: Binding to cloned human α2A adrenergic receptor, [3H]rauwolscine.

human 5-HT7 receptor, sequence (P34969 1-445 isoform P34969-2): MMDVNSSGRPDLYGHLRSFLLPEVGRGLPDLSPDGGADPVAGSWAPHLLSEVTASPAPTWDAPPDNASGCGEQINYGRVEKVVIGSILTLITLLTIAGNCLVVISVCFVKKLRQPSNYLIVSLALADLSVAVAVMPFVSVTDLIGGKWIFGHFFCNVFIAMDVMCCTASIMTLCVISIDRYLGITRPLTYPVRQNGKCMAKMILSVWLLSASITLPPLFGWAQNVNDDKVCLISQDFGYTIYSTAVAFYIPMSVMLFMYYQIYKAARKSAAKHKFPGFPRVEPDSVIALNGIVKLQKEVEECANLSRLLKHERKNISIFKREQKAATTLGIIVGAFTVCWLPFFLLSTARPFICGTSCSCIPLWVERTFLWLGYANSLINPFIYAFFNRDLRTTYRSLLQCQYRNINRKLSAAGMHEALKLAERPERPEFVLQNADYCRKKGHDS
human 5HT1Dα receptor, sequence (P28221 whole entry): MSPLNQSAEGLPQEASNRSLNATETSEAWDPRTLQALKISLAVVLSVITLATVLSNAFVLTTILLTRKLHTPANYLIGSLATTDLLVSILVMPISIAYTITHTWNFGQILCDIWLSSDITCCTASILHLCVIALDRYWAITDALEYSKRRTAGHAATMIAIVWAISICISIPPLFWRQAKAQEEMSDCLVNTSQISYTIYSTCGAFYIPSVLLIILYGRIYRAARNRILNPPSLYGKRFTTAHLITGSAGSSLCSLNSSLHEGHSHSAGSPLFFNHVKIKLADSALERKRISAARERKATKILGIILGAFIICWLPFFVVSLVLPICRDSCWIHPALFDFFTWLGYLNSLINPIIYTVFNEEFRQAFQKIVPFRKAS

By Ki is commonly meant the equilibrium dissociation constant of an inhibitor or competing ligand from its target. As for `Cl.Cl.Nc1ccccc1S(=O)(=O)NCC1CCC(CNCC2CCc3ccccc3C2)CC1` (stereo not drawn) [Compound 22], the results for the Ki on human Y1 receptor and at human Y2 receptor were 17200 nM and 7570 nM, respectively. The “Two-hour food intake of food-deprived rats, Mean (%)” value (shortened to “Two-hour food intake … (%)”) in test [1] is 55%. The “Receptor (pKi) 5HT7” value on human 5-HT7 receptor is reported as 6.39. At human α1d receptor, the “Receptor (pKi) α1d” value is 6.80. The “Receptor (pKi) α1b” value at human α1b receptor amounted to 6.98. Further, on human 5HT1Dα receptor, the “Receptor (pKi) 5HT1Dα” value is on record as 5.98. Besides, at human α2A receptor, the “Receptor (pKi) α2a” value worked out at 7.05.
With `Cl.O=S(=O)(NC[C@H]1CC[C@H](CNCC2CCc3ccccc3C2)CC1)c1cccc2ccccc12` (stereo partly drawn) [Compound 19], the Ki on human Y1 receptor is 3550 nM; on human Y2 receptor it was 955 nM. In addition, the “Two-hour food intake … (%)” value in test [1] is 36%. Moreover, the “Receptor (pKi) 5HT7” value at human 5-HT7 receptor came to 6.42. Besides, the “Receptor (pKi) α1d” value on human α1d receptor came to 6.90. Moreover, the “Receptor (pKi) α1b” value on human α1b receptor worked out at 7.35. Besides, the “Receptor (pKi) 5HT1Dα” value on human 5HT1Dα receptor came out at 6.04. On human α2A receptor, the “Receptor (pKi) α2a” value is recorded as 6.74.
Turning to `Cl.O=[N+]([O-])c1ccccc1S(=O)(=O)NC[C@H]1CC[C@H](CNCC2CCc3ccccc3C2)CC1` (stereo partly drawn) [Compound 20], the Ki at human Y1 receptor stood at 16000 nM; on human Y2 receptor, 7760 nM. In addition, the “Two-hour food intake … (%)” value in test [1] turned out to be 35%. Besides, the “Receptor (pKi) 5HT7” value on human 5-HT7 receptor was 6.37. Moreover, the “Receptor (pKi) α1d” value on human α1d receptor came to 7.01. Besides, the “Receptor (pKi) α1b” value on human α1b receptor is 7.22. Further, the “Receptor (pKi) 5HT1Dα” value on human 5HT1Dα receptor was determined as 5.94. In addition, the “Receptor (pKi) α2a” value at human α2A receptor came out at 7.31.
